Test results taken from patent US8691864B2, “Agents useful for reducing amyloid precursor protein and treating dementia and methods of use thereof” (priority 2000, dated 2014).

Tests used:
βAPP [1] = assay: βAPP levels in SK-N-SH cells (conditioned media and cell lysates), western blot; format: cell-based, human
Description: (§1) SK-N-SH neuroblastoma cells were cultured on 60 mm dishes at a concentration of 3×10^6 cells, and SH-SY-5Y neuroblastoma and U373 astrocytorna cell lines were plated in 100 mm dishes at a concentration of 3×10^5 cells. The cells were allowed to grow in complete medium ([…], 2 mM glutamine in DMEM) for 3 to 4 days until they reached 70% confluence. To start the experiment, spent medium was removed and replaced with fresh medium (SKNSH—4 ml of DMEM+0.5% FBS; U373—5 ml of DMEM+2.5% FBS) containing 0, 5, or 50 μM phenserine. The cells were incubated at 37° C., 5% CO2 for the specific times indicated. Different media and sera were purchased from Life Technologies (Gaithersberg, Md.).
(§2) At each time point, the spent medium was collected and stored at −70° C. for later analysis of secretory βAPP levels. The cells were washed twice with PBS, pH 7.4 and incubated on ice for 15 min for lysis with 100 μL of lysis buffer (20 mM HEPES, 2 mM EGTA, 50 mM (β-glycophosphate, 1 mM sodium orthovanadate, 1% Triton X-100, 10% glycerol) containing appropriate protease inhibitors (2 mM PMSF, 100 μg/mL aprotinin, 25 μM leupeptin and 20 μg/mL soybean trypsin inhibitor). Each lysate was microcentrifuged for 15 min at 14 000 rpm. Protein levels of the supernatant were analyzed by the Bradford protein assay (BioRad, Melville, N.Y.).
Fifteen μg of protein from each sample was mixed with the appropriate volume of 5× Laemmli buffer and boiled for 5 min at 100° C. The samples were loaded onto a 10% NuPAGE Bis-Tris gel in 1×NuPAGE MOPS SDS running buffer (NOVEX, San Diego, Calif.) and the proteins separated at 200 V for 45 min. The gels then were transferred onto nitrocellulose at 25 V for 1.5 h. The blots were blocked with 5% non-fat dry milk in 10 mM Tris, pH 8.0 containing 150 mM NaCl for 1 h and washed twice for 15 min in large volumes of TBST (10 mM Tris, pH 8.0, 150 mM NaCl and 0.05% Tween 20). Each blot was probed for 2 h with either 22C11 anti-βAPP-terminal antibody (Boehringer Mannheim, Indianapolis, Ind.), diluted to a concentration of 2.5 μg/mL or anti-activated ERK antibody (Promega, Madison, Wis.), diluted to a concentration of 25 ng/mL. The blots were washed twice for 15 min in TBST and placed in secondary antibody, anti-mouse IgG- or anti-rabbit IgG conjugated to horse radish peroxidase (Sigma, St. Louis, Mo.), for 30 min. Three final TBST washes of 20 min duration each were performed before the samples were detected by chemiluminescence and exposed to film, as per the manufacturer's instructions (Amersham Life Science Inc., Arlington Heights, Ill.). Additionally, all blots also were stained with Ponceau S (Sigma, St. Louis, Mo.) to determine equivalent loading of samples. Densitometric quantification of blots was undertaken by using a […] and NIH-IMAGE (version 4.1).
Western blots of conditioned media (FIG. 4A) and cell lysates (FIG. 4B) were probed; with a N-terminal directed anti-βAPP antibody.
3×10^6 SK-N-SH cells were plated on 60 mm dishes with DMEM containing 10% FBS. After 36 hours, cells were incubated with low serum medium for 1 hour. Thereafter, the medium was replaced with fresh low serum medium (0.5% FBS). […] The cells were incubated with and without phenserine for 16 hours. At the stated time (4, 8 and 16 hrs), 200 μl of medium was transferred from each dish for assessment of extracellular APP levels. At the end of experiments (16 hrs), the cells were lysed and collected for assessment of intracellular APP levels.
15 μL of medium samples and 15 μg of total protein from each lysed samples were loaded onto 10% trys-glycine gels, and the protein was separated at 150 V for 90 min. The gels were transferred onto polyvinylidene difluoride paper and probed with an affinity-purified anti-APP antibody (22C11), which recognizes the ectodomain of APP (residues 66-81). The APP signals were detected by chemiluminescence and exposed to film. The quantitation of the signals was determined by using a CD camera and NIH-IMAGE (version 4.0). […]

SK-N-SH cells = assay: LDH assay / cell number and viability, SK-N-SH cells; format: cell-based, human; conditions: for toxicity by cell number and viability (LDH measurement): cymserine and analogs
From the text: Measurement of released lactate dehydrogenase (LDH) in the conditioned medium was undertaken as a marker of cell viability and integrity, as described previously (Lahiri et al., 1997 and 1998).
This was not associated with cellular dysfunction, as determined by measurement of LDH levels versus untreated controls (FIG. 4C).

total Aβ peptide = assay: total Aβ ELISA in SK-N-SH conditioned medium; format: cell-based, human; conditions: for Aβ peptide levels: cymserine and analogs
Description: Total Aβ peptide levels in SH-SY-SY and SK-N-SH cultured samples were assayed by a sensitive ELISA (Suzuki et al., 1994). For total Aβ measurements in conditioned medium, the rabbit polyclonal antibody #3160 (1-40 residues of Aβ) was used as a capture antibody for all species of Aβ peptide (Aβ1-40 and Aβ1-42) while monoclonal antibody 4G8 (17-25 residues of Aβ) was used to detect Aβ peptide levels, and the values were expressed as the mean of six independent assays.
Likewise, (+)-phenserine reduced BAPP protein levels and total Aβ peptide levels at 16 hours (FIG. 5).

cholinesterase [2] = format: biochemical
βAPP and Aβ = conditions: neuronal cells in vitro; Lahiri et al., 1998; cited from earlier work
Aβ1-42 = Aβ1-42 levels in cerebral cortex of transgenic mice, ELISA; format: in vivo; conditions: formic acid extraction, 3 weeks daily
Description: (§3) Greater reductions could be achieved, but, as previously reported, doses of >5 mg/kg produce cholinergic side effects for the (−)-enantiomer but not for the (+)-enantiomer.
(§4) Samples of cerebral cortex from the transgenic mice then were analyzed for β amyloid peptide (Aβ) levels. Specifically, Aβ1-40 and Aβ1-42 levels, following formic acid extraction, were determined by ELISA assay (Suzuki et al., 1994).

Aβ1-40 = Aβ1-40 levels in cerebral cortex of transgenic mice, ELISA; format: in vivo; conditions: formic acid extraction, 3 weeks daily
Description: as §3, §4

cholinesterase [3] = conditions: Greig et al., 1995; Brossi et al., 1996; cited from earlier work
[4] = in vivo toxicity, i.p. administration to rodents; conditions: 20 mg/kg
Description: This persisted for an hour and is related to central cholinergic overdrive. […] Animals were incapacitated at 20 mg/kg (N=3 per dose group), and 2 were killed when moribund.

βAPP [5] = assay: βAPP protein levels in SH-SY5Y cell lysates, western blot; format: cell-based, human; conditions: 5 μM, 0.5, 1, 2 and 4 hours
Description: as §1
as §2, with “N.Y.). […]” for “N.Y.).”

ERK½ = assay: phosphorylated ERK in SH-SY5Y cells, western blot; format: cell-based, human; conditions: 5 μM, 0.5-4 hours
Description: Fifteen μg of protein from each sample was mixed with the appropriate volume of 5× Laemmli buffer and boiled for 5 min at 100° C. The samples were loaded onto a 10% NuPAGE Bis-Tris gel in 1×NuPAGE MOPS SDS running buffer (NOVEX, San Diego, Calif.) and the proteins separated at 200 V for 45 min. The gels then were transferred onto nitrocellulose at 25 V for 1.5 h. The blots were blocked with 5% non-fat dry milk in 10 mM Tris, pH 8.0 containing 150 mM NaCl for 1 h and washed twice for 15 min in large volumes of TBST (10 mM Tris, pH 8.0, 150 mM NaCl and 0.05% Tween 20). […] Three final TBST washes of 20 min duration each were performed before the samples were detected by chemiluminescence and exposed to film, as per the manufacturer's instructions (Amersham Life Science Inc., Arlington Heights, Ill.). […] Densitometric quantification of blots was undertaken by using a […] and NIH-IMAGE (version 4.1).
SH-SY5Y cells were incubated with 5 μM (+)-phenserine or (−) phenserine for 0, 0.5, 1, 2 and 4 hours to determine the effect of the drug on βAPP protein levels. Western blots of cell lysates containing 15 μg of total protein per lane were analyzed. […] Stress activated transcription kinases, p38 and JNK, were not detected in the samples. […]

CC(C)c1ccc(NC(=O)Oc2ccc3c(c2)[C@]2(C)CCNC2N3)cc1 (single isomer, unassigned; (-)) [(−)-N^1,N^8-bisnorcymserine]
βAPP protein levels (βAPP [1]; cymserine and analogs (FIG. 7)): reduced βAPP protein levels | toxicity by cell number and viability (LDH measurement) (SK-N-SH cells; SK-N-SH): no toxicity | toxicity at higher concentrations (SK-N-SH cells): toxic | Aβ peptide levels (total Aβ peptide): also reduced

CC(C)c1ccc(NC(=O)Oc2ccc3c(c2)[C@@]2(C)CCN(C)[C@H]2N3C)cc1 [(+)-cymserine, (+)-Cymserine]
βAPP protein levels (βAPP [1]; cymserine and analogs (FIG. 7)): reduced βAPP protein levels | anticholinesterase activity / action (cholinesterase [2]): devoid of it | toxicity by cell number and viability (LDH measurement) (SK-N-SH cells; SK-N-SH): no toxicity | Aβ peptide levels (total Aβ peptide): also reduced

CNC(=O)Oc1ccc2c(c1)[C@]1(C)CCN(C)[C@@H]1N2C [(−)-physostigmine, reference compound]
βAPP protein levels (βAPP [1]; 50 μM): no reduction or change | total Aβ peptide levels (total Aβ peptide; 50 μM): no reduction or change

Nc1c2c(nc3ccccc13)CCCC2 [tacrine]
βAPP and Aβ (βAPP and Aβ): decrease βAPP and Aβ

CC(C)c1ccc(NC(=O)Oc2ccc3c(c2)[C@]2(C)CCN(C)[C@@H]2N3C)cc1 [(−)-cymserine]
βAPP protein levels (βAPP [1]; cymserine and analogs (FIG. 7)): reduced βAPP protein levels | anticholinesterase activity / action (cholinesterase [2]): possessed anticholinesterase action | toxicity by cell number and viability (LDH measurement) (SK-N-SH cells; SK-N-SH): no toxicity | Aβ peptide levels (total Aβ peptide): also reduced

CC(C)c1ccc(NC(=O)Oc2ccc3c(c2)[C@]2(C)CCN(CCc4ccccc4)[C@@H]2N3C)cc1 [(−)-N^1-phenethylcymserine]
βAPP protein levels (βAPP [1]; cymserine and analogs (FIG. 7)): reduced βAPP protein levels | reduction of Aβ1-42 levels (Aβ1-42): 47% | toxicity by cell number and viability (LDH measurement) (SK-N-SH cells; SK-N-SH): no toxicity | toxicity at higher concentrations (SK-N-SH cells): toxic | Aβ peptide levels (total Aβ peptide): also reduced | reduction of Aβ1-40 levels (Aβ1-40): 54%

CN1CCC2(C)c3cc(OC(=O)Nc4ccccc4)ccc3N(C)C12 (single isomer, unassigned; (+)) [(+)-phenserine, (+)-Phenserine]
anti-cholinesterase activity (cholinesterase [3]): no anti-cholinesterase activity | clinical signs [4]: without clinical symptoms and appeared normal | BAPP protein levels (βAPP [1]; 16 hours (FIG. 5)): reduced | βAPP levels in the cell lysates (βAPP [5]): slowly decreased at each time point | anticholinesterase activity / action (cholinesterase [2]): devoid of anticholinesterase activity | toxicity by cell number and viability (LDH levels) (SK-N-SH cells; SK-N-SH, 16 hours (FIG. 5)): not associated with toxicity | total Aβ peptide levels (total Aβ peptide; 16 hours (FIG. 5)): reduced | ERK½ (phosphorylated) detection (ERK½): peaked at the 30 minute to 1 hour period
